Data on 33 compounds can be found in US12459899B2, “Isoquinolinone derivatives, method for preparing the same, and pharmaceutical composition for preventing or treating poly(ADP-ribose) polymerase-1-related diseases, comprising the same as active ingredient” (DIGMBIO. INC., priority 2019, dated 2025).

For orientation: IC50 means the concentration needed to halve the response being measured. A higher IC50 goes with a need for much substance.

PARP-1 (poly[ADP-ribose] polymerase 1) enzyme, sequence (P09874 whole entry): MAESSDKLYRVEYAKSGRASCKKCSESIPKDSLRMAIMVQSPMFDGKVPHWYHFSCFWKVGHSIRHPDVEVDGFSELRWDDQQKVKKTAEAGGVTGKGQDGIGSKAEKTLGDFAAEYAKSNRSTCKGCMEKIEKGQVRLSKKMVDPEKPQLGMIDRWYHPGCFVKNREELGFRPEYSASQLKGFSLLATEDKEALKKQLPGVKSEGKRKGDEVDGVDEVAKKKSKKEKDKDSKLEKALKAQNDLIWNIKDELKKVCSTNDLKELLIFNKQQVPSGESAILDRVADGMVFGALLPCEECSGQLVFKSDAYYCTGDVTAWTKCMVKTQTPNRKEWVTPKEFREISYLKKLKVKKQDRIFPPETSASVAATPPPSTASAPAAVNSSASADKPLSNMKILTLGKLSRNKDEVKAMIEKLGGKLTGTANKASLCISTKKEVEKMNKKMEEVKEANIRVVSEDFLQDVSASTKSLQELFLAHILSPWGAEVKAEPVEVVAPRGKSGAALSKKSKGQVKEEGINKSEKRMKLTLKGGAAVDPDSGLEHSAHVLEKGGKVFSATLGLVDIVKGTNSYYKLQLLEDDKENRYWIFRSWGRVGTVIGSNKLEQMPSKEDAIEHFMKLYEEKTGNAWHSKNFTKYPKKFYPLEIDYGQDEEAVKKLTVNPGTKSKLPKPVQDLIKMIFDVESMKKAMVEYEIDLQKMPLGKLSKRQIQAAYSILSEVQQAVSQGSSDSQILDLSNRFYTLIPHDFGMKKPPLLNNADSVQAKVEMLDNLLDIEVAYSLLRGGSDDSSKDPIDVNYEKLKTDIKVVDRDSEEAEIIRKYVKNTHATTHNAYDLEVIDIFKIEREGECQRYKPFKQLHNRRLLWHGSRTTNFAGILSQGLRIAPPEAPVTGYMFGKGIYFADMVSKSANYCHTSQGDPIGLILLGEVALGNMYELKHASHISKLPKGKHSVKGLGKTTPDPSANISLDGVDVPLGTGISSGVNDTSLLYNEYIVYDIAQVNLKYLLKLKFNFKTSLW

One assay has as its target PARP-1 (poly[ADP-ribose] polymerase 1) enzyme (Homo sapiens (Human), UniProt P09874). Nature of the assay: PARP-1 (poly[ADP-ribose] polymerase 1) enzyme inhibitory ability, Trevigen assay kit. The class given is biochemical. The settings on record: 1 nM compound; read-out: PAR P-1 Inhibitory ability at 1 nM. In a few lines:
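Human PARP-1 activity was measured with a Trevigen assay kit in histone-coated 96-well plates rehydrated with 50 μL of 1×PARP buffer for 30 minutes. Enzyme (0.5 unit/well) and compound were preincubated 10 minutes at room temperature, then 25 μL of 1×PARP cocktail with biotinylated NAD and activated DNA was added for 1 hour.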
For the compound `Cc1ccc(F)c2c(=O)[nH]c(CCC(=O)N3CC=C(c4cc(C#N)ccc4F)CC3)cc12` [Example 137, 4-fluoro-3-(1-(3-(8-fluoro-5-methyl-1-oxo-1,2-dihydroisoquinolin-3-yl)propanoyl)-1,2,3,6-tetrahydropyridin-4-yl)benzonitrile], the inhibition at 0.001 µM is less than 50%.

Regarding `O=c1[nH]c(CCCN2C3CCC2CC(O)C3)cc2ncccc12` (stereo not drawn) [Example 271, 7-(3-(3-hydroxy-8-azabicyclo[3.2.1]octan-8-yl)propyl)-1,6-naphthyridin-5(6H)-one], the inhibition at 0.001 µM is less than 50%.

For the compound `O=c1[nH]c(CCCN2CCN(c3cccc([N+](=O)[O-])c3)CC2)cc2ccc(F)cc12` [Example 11, 7-fluoro-3-(3-(4-(3-nitrophenyl)piperazin-1-yl)propyl)isoquinolin-1(2H)-one], the inhibition at 0.001 µM was less than 50%.

Regarding `Cc1ccc(F)c2c(=O)[nH]c(CCC(=O)N3CCN(c4ccc(C#N)cc4)CC3)cc12` [Example 122, 4-(4-(3-(8-fluoro-5-methyl-1-oxo-1,2-dihydroisoquinolin-3-yl)propanoyl)piperazin-1-yl)benzonitrile], the inhibition at 0.001 µM is less than 50%.

Consider `N#Cc1ccc(OC2CC3CCC(C2)N3C(=O)CCc2cc3cccc(F)c3c(=O)[nH]2)cc1` (stereo not drawn) [Example 274, 4-((8-(3-(8-fluoro-1-oxo-1,2-dihydroisoquinolin-3-yl)propanoyl)-8-azabicyclo[3.2.1]octan-3-yl)oxy)benzonitrile], for which the inhibition at 0.001 µM is less than 50%.

In the case of `Cc1cc(F)cc2c(=O)[nH]c(CCC(=O)N3CC=C(c4cc(C#N)ccc4F)CC3)cc12` [Example 160, 4-fluoro-3-(1-(3-(7-fluoro-5-methyl-1-oxo-1,2-dihydroisoquinolin-3-yl)propanoyl)-1,2,3,6-tetrahydropyridin-4-yl)benzonitrile], the inhibition at 0.001 µM was less than 50%.

In the case of `N#Cc1ccc(N2CCN(C(=O)CCc3cc4cccc(F)c4c(=O)[nH]3)CC2)c(F)c1` [Example 73, 3-fluoro-4-(4-(3-(8-fluoro-1-oxo-1,2-dihydroisoquinolin-3-yl)propanoyl)piperazin-1-yl)benzonitrile], the inhibition at 0.001 µM is less than 50%.

Turning to `N#Cc1ccc(N2CCN(C(=O)CCc3cc4cccc(F)c4c(=O)[nH]3)CC2)nc1` [Example 71, 6-(4-(3-(8-fluoro-1-oxo-1,2-dihydroisoquinolin-3-yl)propanoyl)piperazin-1-yl)nicotinonitrile], the inhibition at 0.001 µM is less than 50%.

Take `N#Cc1ccc(N2CCN(C(=O)CCc3cc4ccc(F)cc4c(=O)[nH]3)CC2)cc1F` [Example 101, 2-fluoro-4-(4-(3-(7-fluoro-1-oxo-1,2-dihydroisoquinolin-3-yl)propanoyl)piperazin-1-yl)benzonitrile]: the inhibition at 0.001 µM is less than 50%.

As for `Cc1ccc(F)c2c(=O)[nH]c(CCCN3CC=C(c4ccc(C#N)c(F)c4)CC3)cc12` [Example 55, 2-fluoro-4-(1-(3-(8-fluoro-5-methyl-1-oxo-1,2-dihydroisoquinolin-3-yl)propyl)-1,2,3,6-tetrahydropyridin-4-yl)benzonitrile], the inhibition at 0.001 µM fell in the range of 50 to 80%.

`O=C(CCc1cc2ccc(F)cc2c(=O)[nH]1)N1CC=C(c2ccc(F)cc2)CC1` [Example 104, 7-fluoro-3-(3-(4-(4-fluorophenyl)-3,6-dihydropyridin-1(2H)-yl)-3-oxopropyl)isoquinolin-1(2H)-one]: the inhibition at 0.001 µM is less than 50%.

On to `Cc1cc(F)cc2c(=O)[nH]c(CCC(=O)N3CCN(C(=O)C(C)C)CC3)cc12` [Example 189, 7-fluoro-3-(3-(4-isobutyrylpiperazin-1-yl)-3-oxopropyl)-5-methylisoquinolin-1(2H)-one], for which the inhibition at 0.001 µM was less than 50%.

Consider `Cc1cc(F)cc2c(=O)[nH]c(CCC(=O)N3CC=C(c4ccc(F)cc4F)CC3)cc12` [Example 162, 3-(3-(4-(2,4-difluorophenyl)-3,6-dihydropyridin-1(2H)-yl)-3-oxopropyl)-7-fluoro-5-methylisoquinolin-1(2H)-one], for which the inhibition at 0.001 µM is less than 50%.

In the case of `Cc1cc(F)cc2c(=O)[nH]c(CCC(=O)N3CCN(C(=O)C4CCCC4)CC3)cc12` [Example 177, 3-(3-(4-(cyclopentanecarbonyl)piperazin-1-yl)-3-oxopropyl)-7-fluoro-5-methylisoquinolin-1(2H)-one], the inhibition at 0.001 µM was less than 50%.

In the case of `N#Cc1ccc(N2CCN(CCCc3cc4ncccc4c(=O)[nH]3)CC2)cc1` [Example 221, 4-(4-(3-(5-oxo-5,6-dihydro-1,6-naphthyridin-7-yl)propyl)piperazin-1-yl)benzonitrile], the inhibition at 0.001 µM lay within 50 to 80%.

As to `Cc1ccc(F)c2c(=O)[nH]c(CCCN3C4CCC3CN(c3ccc(F)cc3)C4)cc12` [Example 198, 8-fluoro-3-(3-(3-(4-fluorophenyl)-3,8-diazabicyclo[3.2.1]octan-8-yl)propyl)-5-methylisoquinolin-1(2H)-one], the inhibition at 0.001 µM is less than 50%.

Take `Cc1cc(F)cc2c(=O)[nH]c(CCC(=O)N3CCN(c4ccc(C#N)cc4F)CC3)cc12` [Example 154, 3-fluoro-4-(4-(3-(7-fluoro-5-methyl-1-oxo-1,2-dihydroisoquinolin-3-yl)propanoyl)piperazin-1-yl)benzonitrile]: the inhibition at 0.001 µM is less than 50%.

Regarding `Cc1cc(F)cc2c(=O)[nH]c(CCC(=O)N3CCN(C(=O)C4CC4)CC3)cc12` [Example 185, 3-(3-(4-(cyclopropanecarbonyl)piperazin-1-yl)-3-oxopropyl)-7-fluoro-5-methylisoquinolin-1(2H)-one], the inhibition at 0.001 µM was less than 50%.

Turning to `Cc1cc(F)cc2c(=O)[nH]c(CCC(=O)N3CCN(C(=O)C4CCC4)CC3)cc12` [Example 181, 3-(3-(4-(cyclobutanecarbonyl)piperazin-1-yl)-3-oxopropyl)-7-fluoro-5-methylisoquinolin-1(2H)-one], the inhibition at 0.001 µM was less than 50%.

As to `O=C(CCc1cc2ccc(F)cc2c(=O)[nH]1)N1CCN(c2ccc(F)cc2F)CC1` [Example 106, 3-(3-(4-(2,4-difluorophenyl)piperazin-1-yl)-3-oxopropyl)-7-fluoroisoquinolin-1(2H)-one], the inhibition at 0.001 µM was less than 50%.

In the case of `N#Cc1ccc(N2CCN(C(=O)CCc3cc4cccc(F)c4c(=O)[nH]3)CC2)cc1F` [Example 72, 2-fluoro-4-(4-(3-(8-fluoro-1-oxo-1,2-dihydroisoquinolin-3-yl)propanoyl)piperazin-1-yl)benzonitrile], the inhibition at 0.001 µM is less than 50%.

For `N#Cc1ccc(C2=CCN(C(=O)CCc3cc4ccc(F)cc4c(=O)[nH]3)CC2)cc1` [Example 95, 4-(1-(3-(7-fluoro-1-oxo-1,2-dihydroisoquinolin-3-yl)propanoyl)-1,2,3,6-tetrahydropyridin-4-yl)benzonitrile], the inhibition at 0.001 µM was less than 50%.

As to `O=c1[nH]c(CCCN2CC=C(c3ccncc3)CC2)cc2ncccc12` [Example 240, 7-(3-(3,6-dihydro-[4,4′-bipyridine]-1(2H)-yl)propyl)-1,6-naphthyridin-5(6H)-one], the inhibition at 0.001 µM is less than 50%.

On to `Cc1ccc(F)c2c(=O)[nH]c(CCCN3CCN(C(=O)c4ccccc4)CC3)cc12` [Example 66, 3-(3-(4-benzoylpiperazin-1-yl)propyl)-8-fluoro-5-methylisoquinolin-1(2H)-one], for which the inhibition at 0.001 µM is less than 50%.

In the case of `Cc1ccc(F)c2c(=O)[nH]c(CCC(=O)N3C4CCC3CN(c3ccc(Cl)cc3)C4)cc12` [Example 210, 3-(3-(3-(4-chlorophenyl)-3,8-diazabicyclo[3.2.1]octan-8-yl)-3-oxopropyl)-8-fluoro-5-methylisoquinolin-1(2H)-one], the inhibition at 0.001 µM was less than 50%.

As for `O=C(CCc1cc2cccc(F)c2c(=O)[nH]1)N1CCN(C(=O)C2CCCC2)CC1` [Example 174, 3-(3-(4-(cyclopentanecarbonyl)piperazin-1-yl)-3-oxopropyl)-8-fluoroisoquinolin-1(2H)-one], the inhibition at 0.001 µM was less than 50%.

Take `N#Cc1cc(C2=CCN(C(=O)CCc3cc4cccc(F)c4c(=O)[nH]3)CC2)ccc1F` [Example 87, 2-fluoro-5-(1-(3-(8-fluoro-1-oxo-1,2-dihydroisoquinolin-3-yl)propanoyl)-1,2,3,6-tetrahydropyridin-4-yl)benzonitrile]: the inhibition at 0.001 µM was less than 50%.

As to `O=c1[nH]c(CCCN2CC=C(c3ccc(Cl)cc3)CC2)cc2ccc(F)cc12` [Example 49, 3-(3-(4-(4-chlorophenyl)-3,6-dihydropyridin-1(2H)-yl)propyl)-7-fluoroisoquinolin-1(2H)-one], the inhibition at 0.001 µM is less than 50%.

On to `O=C(CCc1cc2cccc(F)c2c(=O)[nH]1)N1CC=C(c2ccc(F)nc2)CC1` [Example 85, 8-fluoro-3-(3-(6-fluoro-3′,6′-dihydro-[3,4′-bipyridine]-1′(2′H)-yl)-3-oxopropyl)isoquinolin-1(2H)-one], for which the inhibition at 0.001 µM is less than 50%.

Consider `Cc1cc(F)cc2c(=O)[nH]c(CCC(=O)N3C4CCC3CN(c3ccc(F)cc3)C4)cc12` [Example 215, 7-fluoro-3-(3-(3-(4-fluorophenyl)-3,8-diazabicyclo[3.2.1]octan-8-yl)-3-oxopropyl)-5-methylisoquinolin-1(2H)-one], for which the inhibition at 0.001 µM was less than 50%.

For the compound `O=c1[nH]c(CCCN2C3CCC2CC(O)C3)cc2cccc(F)c12` (stereo not drawn) [Example 272, 8-fluoro-3-(3-(3-hydroxy-8-azabicyclo[3.2.1]octan-8-yl)propyl)isoquinolin-1(2H)-one], the inhibition at 0.001 µM lay in the range of 50 to 80%.

On to `Cc1cc(F)cc2c(=O)[nH]c(CCC(=O)N3CC=C(c4cc(F)cc(C#N)c4)CC3)cc12` [Example 163, 3-fluoro-5-(1-(3-(7-fluoro-5-methyl-1-oxo-1,2-dihydroisoquinolin-3-yl)propanoyl)-1,2,3,6-tetrahydropyridin-4-yl)benzonitrile], for which the inhibition at 0.001 µM was less than 50%.

As for `Cc1ccc(F)c2c(=O)[nH]c(CCC(=O)N3CCN(c4cccc(F)c4)CC3)cc12` [Example 142, 8-fluoro-3-(3-(4-(3-fluorophenyl)piperazin-1-yl)-3-oxopropyl)-5-methylisoquinolin-1(2H)-one], the inhibition at 0.001 µM was less than 50%.

The assay is the same for the next values; noted with them: PARP-1 enzyme activity.
Compound `Cc1ccc(F)c2c(=O)[nH]c(CCCN3CC=C(c4ccc(C#N)c(F)c4)CC3)cc12` [Example 55, 2-fluoro-4-(1-(3-(8-fluoro-5-methyl-1-oxo-1,2-dihydroisoquinolin-3-yl)propyl)-1,2,3,6-tetrahydropyridin-4-yl)benzonitrile] came in with an IC50 of 1.77 nM.

Turning to `O=c1[nH]c(CCCN2CC=C(c3ccc(Cl)cc3)CC2)cc2ccc(F)cc12` [Example 49, 3-(3-(4-(4-chlorophenyl)-3,6-dihydropyridin-1(2H)-yl)propyl)-7-fluoroisoquinolin-1(2H)-one], the half-inhibitory concentration (IC50) came out at 3.58 nM.

On to `O=c1[nH]c(CCCN2C3CCC2CC(O)C3)cc2cccc(F)c12` (stereo not drawn) [Example 272, 8-fluoro-3-(3-(3-hydroxy-8-azabicyclo[3.2.1]octan-8-yl)propyl)isoquinolin-1(2H)-one], for which the IC50 came out at 3.27 nM.
